Measurements: BigSolDB 2.1

OC[C@@H](O)C(O)[C@@H](O)CO (some centres undefined)
solubility (mole fraction)
Details | 293.15 K | 298.15 K | 303.15 K | 308.15 K | 313.15 K | 318.15 K | 323.15 K
in acetone | 0.000202 | 0.00024 | 0.000302 | 0.000399 | 0.000542 | 0.000739 | 0.001
in ethanol | 0.00172 | 0.0024 | 0.00309 | 0.00396 | 0.00521 | 0.00703 | 0.0096
